Assay results published in patent US10300096B2, “Use of adenoviruses and nucleic acids that code for said viruses” (priority 2003, dated 2019).

Legend:
Assay type in all cases: cell-based
U373 tumour cells [1] = experiment: Replication of dl520 after addition of Irinotecan, Southern blot; settings: 5 μM Irinotecan 24 hours before infection with 10 pfu/cell dl520, compared to untreated control
Protocol: In order to determine the effect of Irinotecan on adenoviral replication 10^6 U373 tumour cells were plated in 10 cm^2 Petri dishes. In a first reaction 5 μM Irinotecan was added after 24 hours. After another 24 hours the cells were infected with 10 pfu/cell dl520. After incubation of 3 days without Irinotecan DNA was isolated in accordance with the procedure described in example 10.
In a parallel reaction the thus prepared U373-cells were not pre-incubated with Irinotecan. After 48 hours of cultivating the cells without Irinotecan, they were infected with 10 pfu/cell dl520 and subsequently incubated without Irinotecan for another 3 days. DNA was isolated as described above.
Subsequently […] were digested with restriction enzyme Kpn I and a Southern Blot analysis performed. A part of the adenoviral genome (position: 22734-24235) generated by means of PCR was used as a probe.

U373 tumour cells [2] = experiment: Replication of dl520 after administration of Trichostatin A, Southern blot; settings: 0.25, 0.5 and 0.75 μM Trichostatin A 24 hours before infection with 10 pfu dl520/cell, compared to untreated controls
Protocol: In order to test the effect of Trichostatin A on adenoviral replication, 10^6 U373 tumour cells were plated in 10 cm^2 Petri dishes. After 24 hours 0, 0.25, 0.5 and 0.75 μM Trichostatin A was added. After another 24 hours the cells were infected with 10 pfu dl520/cell.
After 3 days of incubation in medium without Trichostatin DNA was isolated. Subsequently 2 μg DNA were digested with restriction enzyme Kpn I and a Southern Blot analysis performed. A part of the adenoviral genome (position: 22734-24235) generated by means of PCR was used as a probe.

[3] = system: coxsackievirus-adenovirus-receptor (CAR) on U373 cells; experiment: CAR expression by Facs-analysis; settings: 1 μM Trichostatin for 24 hours; 11.3% without treatment
Protocol: 200,000 U373 cells were plated in 6 well plates. After 24 hours the cells were cultivated with 1 μM Trichostatin for 24 hours. After another 24 hours the cells were isolated. Subsequently, analysis of CAR expression was performed according to a standard protocol using Facs-analysis and the primary antibody anti-CAR clone RmcB from the company Upstate, and a rabbit anti-mouse FITC as secondary antibody (company DAKO).

HeLa cells = experiment: Oncolytic assay with daunorubicine and dl520, crystal violet; settings: 40 ng/ml daunorubicine 3 hours before infection
Protocol: (§1) In the practising of the oncolytic assays the following procedure was followed: 200,000 cells (HeLa and U2OS, respectively) were plated into each well of a 6 well plate. On the next day 40 ng/ml (final concentration) of daunorubicine were added. After 3 hours of incubation the cells were infected with 10 and 30 pfu dl520/cell, respectively. Subsequently, the cells were incubated in cytostatic free medium. After 3-5 days the cells were stained using crystal violet.

U2OS cells = experiment: as above; settings: 40 ng/ml daunorubicine 3 hours before infection
Protocol: as §1

CCc1c2c(nc3ccc(OC(=O)N4CCC(N5CCCCC5)CC4)cc13)-c1cc3c(c(=O)n1C2)COC(=O)[C@]3(O)CC [Irinotecan]
adenoviral replication (dl520, Southern blot) (U373 tumour cells [1]): significantly increased

CC(/C=C/C(=O)NO)=C\[C@@H](C)C(=O)c1ccc(N(C)C)cc1 [Trichostatin A]
viral replication (dl520, Southern blot) (U373 tumour cells [2]): significantly increased
CAR-positive cells [3]: 56.2%

COc1cccc2c1C(=O)c1c(O)c3c(c(O)c1C2=O)C[C@@](O)(C(C)=O)C[C@@H]3O[C@H]1C[C@H](N)[C@H](O)[C@H](C)O1 [daunorubicine]
effect on replication of dl520 (HeLa cells): induces the replication of dl520
effect on replication of dl520 (U2OS cells): induces the replication of dl520
